Experimental data published in ChEMBL document CHEMBL5050844 (2019).

How the values were obtained:
[1] = Induction of anti-CD3/CD28 antibodies-stimulated human T cell activation at 1 uM assessed fold increase in CD25 expression measured by ELISA assay; assay type: functional, T cell line
[2] = Induction of anti-CD3 antibodies-stimulated human T cell activation at 8 uM assessed fold increase in IL-2 secretion measured by ELISA assay; assay type: functional, T cell line; note: reference of the scale not given here
[3] = Induction of anti-CD3/CD28 antibodies-stimulated human T cell activation at 0.3 uM assessed fold increase in IL-2 secretion measured by ELISA assay; assay type: functional, T cell line
[4] = Induction of anti-CD3 antibodies-stimulated human T cell activation at 8 uM assessed fold increase in CD25 expression measured by ELISA assay; assay type: functional, T cell line; note: reference of the scale not given here
[5] = Induction of anti-CD3 antibodies-stimulated human T cell activation at 1 uM assessed fold increase in CD25 expression measured by ELISA assay; assay type: functional, T cell line; note: reference of the scale not given here
[6] = Induction of anti-CD3/CD28 antibodies-stimulated human T cell activation at 4 uM assessed fold increase in IL-2 secretion measured by ELISA assay; assay type: functional, T cell line
[7] = Induction of anti-CD3 antibodies-stimulated human T cell activation at 1 uM assessed fold increase in IL-2 secretion measured by ELISA assay; assay type: functional, T cell line; note: reference of the scale not given here
[8] = Induction of anti-CD3/CD28 antibodies-stimulated human T cell activation at 0.3 uM assessed fold increase in CD25 expression measured by ELISA assay; assay type: functional, T cell line
[9] = Induction of anti-CD3/CD28 antibodies-stimulated human T cell activation at 1 uM assessed fold increase in IL-2 secretion measured by ELISA assay; assay type: functional, T cell line
[10] = Induction of anti-CD3/CD28 antibodies-stimulated human T cell activation at 4 uM assessed fold increase in CD25 expression measured by ELISA assay; assay type: functional, T cell line
[11] = biological target: E3 ubiquitin-protein ligase CBL-B (Homo sapiens, UniProt Q13191); experiment: Inhibition of N-terminal Avi-tagged human CBL-B (36 to 427 residues) incubated with 60 nM Src kinase for 1.5 hrs followed by incubation with fluorescently labeled UbcH5B-Ub for 1 hr and measured by TR-FRET assay; assay type: single protein
Sequence of E3 ubiquitin-protein ligase CBL-B (Q13191 whole entry, the tested form may be a part): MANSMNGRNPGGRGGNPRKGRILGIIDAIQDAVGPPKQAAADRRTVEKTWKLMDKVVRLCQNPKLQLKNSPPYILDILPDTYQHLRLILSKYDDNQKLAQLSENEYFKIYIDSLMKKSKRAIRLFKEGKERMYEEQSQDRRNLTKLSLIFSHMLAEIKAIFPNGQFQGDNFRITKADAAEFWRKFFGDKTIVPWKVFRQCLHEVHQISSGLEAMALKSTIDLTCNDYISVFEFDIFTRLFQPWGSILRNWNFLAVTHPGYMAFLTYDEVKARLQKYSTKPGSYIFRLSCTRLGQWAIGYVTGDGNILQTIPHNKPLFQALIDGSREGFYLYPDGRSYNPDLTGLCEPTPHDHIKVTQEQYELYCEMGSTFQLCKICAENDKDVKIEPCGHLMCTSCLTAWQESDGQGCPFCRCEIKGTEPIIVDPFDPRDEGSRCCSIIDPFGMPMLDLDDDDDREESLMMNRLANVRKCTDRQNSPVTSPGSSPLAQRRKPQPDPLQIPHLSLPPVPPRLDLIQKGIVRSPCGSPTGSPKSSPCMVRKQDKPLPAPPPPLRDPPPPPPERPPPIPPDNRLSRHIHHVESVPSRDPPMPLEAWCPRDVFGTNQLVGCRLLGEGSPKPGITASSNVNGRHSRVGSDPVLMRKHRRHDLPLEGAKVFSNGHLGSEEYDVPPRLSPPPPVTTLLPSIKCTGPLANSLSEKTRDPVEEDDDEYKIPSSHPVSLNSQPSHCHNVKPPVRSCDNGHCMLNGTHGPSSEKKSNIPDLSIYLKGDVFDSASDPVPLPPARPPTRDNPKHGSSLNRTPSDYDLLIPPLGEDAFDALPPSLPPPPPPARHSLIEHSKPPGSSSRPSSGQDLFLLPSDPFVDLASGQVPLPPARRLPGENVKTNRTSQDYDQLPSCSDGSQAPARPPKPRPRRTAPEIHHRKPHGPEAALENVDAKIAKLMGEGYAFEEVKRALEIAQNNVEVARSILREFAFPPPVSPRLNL

IC50 [11] | Structure (SMILES) | fold change (FC) [1] | fold change (FC) [2] | fold change (FC) [3] | fold change (FC) [4] | fold change (FC) [5] | fold change (FC) [6] | fold change (FC) [7] | fold change (FC) [8] | fold change (FC) [9] | fold change (FC) [10]
< 100 nM | C[C@H](Cc1nncn1C)c1cccc(N2Cc3c(cc([C@H](C)N4CC[C@H](F)C4)cc3C(F)(F)F)C2=O)c1 | 1.31 | >=0.201 | >=7.5 | >=1.001 | >=1.001 | >=7.5 | >=0.201 | 1.31 | >=7.5 | 1.31
< 100 nM | C[C@@H](c1cccc(N2Cc3c(cccc3C(F)(F)F)C2=O)c1)[C@@H](F)c1nncn1C (single isomer, unassigned) | 1.01 | >=0.201 | 1.01 | >=1.001 | 0.601 | 2.51 | 0.051 | 1.01 | 1.01 | 1.01
< 100 nM | Cn1cnnc1C(F)(F)[C@](C)(F)c1cccc(N2Cc3c(cc(CN4C[C@@H](F)[C@@H](F)C4)cc3C(F)(F)F)C2=O)c1 | 1.31 | >=0.201 | 2.51 | >=1.001 | >=1.001 | >=7.5 | 0.151 | 1.31 | 5 | 1.51
< 100 nM | C[C@H](Cc1nncn1C)c1cccc(N2Cc3c(cc([C@H](C)N4CC(O)C4)cc3C(F)(F)F)C2=O)c1 | 1.31 | >=0.201 | 5 | >=1.001 | >=1.001 | >=7.5 | >=0.201 | 1.01 | >=7.5 | 1.31
< 100 nM | Cn1cnnc1CC1(c2cccc(N3Cc4c(cc(CN5CCCC5=O)cc4C(F)(F)F)C3=O)c2)COC1 | 1.01 | >=0.201 | 1.01 | >=1.001 | >=1.001 | 2.51 | 0.151 | 1.01 | 1.01 | 1.01
< 100 nM | C[C@@H](c1cc2c(c(C(F)(F)F)c1)CN(c1cccc(C3(Cc4nncn4C)COC3)c1)C2=O)N1CCC(F)(F)C1 | 1.31 | >=0.201 | 2.51 | >=1.001 | >=1.001 | >=7.5 | 0.151 | 1.31 | >=7.5 | 1.31
< 100 nM | Cc1cc(C(=O)Nc2cccc(C3(Cc4nncn4C)COC3)c2)nc(C2CCC2)n1 | 1.01 | >=0.201 | 1.01 | >=1.001 | 0.801 | >=7.5 | 0.151 | 1.01 | 5 | 1.31
< 100 nM | COc1ccc(C(=O)Nc2cccc([C@H](C)Sc3nncn3C)c2)nc1C1CC1 | 1.01 | 0.101 | 1.01 | >=1.001 | 0.601 | 2.51 | <=0.05 | 1.01 | 1.01 | 1.01
< 100 nM | C[C@H]1CN(C)CCN1c1cc2c(c(C(F)(F)F)c1)CN(c1cccc([C@@](C)(F)C(F)(F)c3nncn3C)c1)C2=O | 1.01 | >=0.201 | 1.01 | >=1.001 | >=1.001 | >=7.5 | 0.101 | 1.01 | 5 | 1.31
< 100 nM | C[C@H](Cc1nncn1C)c1cccc(N2Cc3c(cc([C@@H](C)N4CC(O)C4)cc3C(F)(F)F)C2=O)c1 | 1.31 | >=0.201 | 2.51 | >=1.001 | 0.801 | >=7.5 | >=0.201 | 1.01 | 5 | 1.31
< 100 nM | C[C@H](Cc1nncn1C)c1cccc(N2Cc3c(cc([C@H]4CCCNC4)cc3C(F)(F)F)C2=O)c1 (single isomer, unassigned) | 1.51 | >=0.201 | 2.51 | >=1.001 | 0.801 | >=7.5 | >=0.201 | 1.31 | 5 | 1.51
< 100 nM | Cn1cnnc1CC1(c2cccc(NC(=O)c3cc(C4CC4)nc(C(F)(F)F)n3)c2)COC1 | 1.31 | >=0.201 | 2.51 | >=1.001 | 0.801 | >=7.5 | 0.151 | 1.01 | >=7.5 | 1.51
< 100 nM | C[C@H](Cc1nncn1C)c1cccc(N2Cc3c(cc(-c4ccn[nH]4)cc3C(F)(F)F)C2=O)c1 | 1.31 | >=0.201 | 2.51 | >=1.001 | >=1.001 | >=7.5 | >=0.201 | 1.01 | 5 | 1.31
< 100 nM | C[C@H](Cc1nncn1C)c1cccc(NC(=O)c2ccnc(C3CC3)n2)c1 | 1.31 | >=0.201 | 2.51 | >=1.001 | >=1.001 | >=7.5 | >=0.201 | 1.01 | 5 | 1.51
< 100 nM | CC(O)c1cc2c(c(C(F)(F)F)c1)CN(c1cccc([C@@](C)(F)C(F)(F)c3nncn3C)c1)C2=O (some centres undefined) | 1.01 | >=0.201 | 1.01 | >=1.001 | 0.801 | 5 | 0.051 | 1.01 | 1.01 | 1.01
< 100 nM | C[C@H](Sc1nncn1C)c1cccc(NC(=O)c2ccc(CO)c(C3CC3)n2)c1 | 1.01 | 0.101 | 1.01 | 0.801 | <=0.6 | 5 | <=0.05 | 1.01 | 2.51 | 1.31
< 100 nM | Cc1ccc(C(=O)Nc2cccc([C@H](C)Sc3nncn3C)c2)nc1C1CC1 | 1.01 | 0.151 | 1.01 | 0.801 | 0.601 | >=7.5 | <=0.05 | 1.01 | 2.51 | 1.01
< 100 nM | Cc1cc(C(=O)Nc2cccc([C@H](C)Sc3nncn3C)c2)nc(C(F)(F)F)c1 | 1.01 | 0.101 | 1.01 | >=1.001 | 0.601 | 2.51 | <=0.05 | 1.01 | 1.01 | 1.01
< 100 nM | Cn1cnnc1CC1(c2cccc(N3Cc4c(cc(CO)cc4C(F)(F)F)C3=O)c2)COC1 | 1.31 | 0.051 | 2.51 | 0.601 | 0.601 | >=7.5 | 0.101 | 1.01 | 5 | 1.51
